Source: publication PMC11667234, “CD63 as novel target for nanoemulsion-based ^19F MRI imaging and drug delivery to activated cardiac fibroblasts” (Theranostics, 2025)
Entries after “also recorded” stand apart in the source; their conditions may differ.

Legend:
mouse EpiSC = assay: Peptide binding by flow cytometry (6-FAM fluorescence); type: cell-based; settings: EpiSC from hearts 5 days after MI, 5 µg peptide, 30 min, 37°C, 6-FAM MFI, n = 3 hearts
Method: (§1) To study the in vitro binding of 6-FAM-conjugated peptides (see above) we used the following cells: mouse EpiSC and cardiac fibroblasts prepared as described above, normal human dermal fibroblasts (NHDF) from juvenile foreskin, and human monocytes (THP-1). In addition, we used primary human cardiac fibroblasts which were prepared by outgrowth culture technique from a heart sample of a patient with terminal heart failure undergoing orthotopic heart transplant surgery, kindly provided by the Cardiac Surgery Department of the University Hospital Düsseldorf, Düsseldorf, Germany. A tissue sample weighing about ~5 g was removed from the failing heart's apex and placed in cooled BIOPS buffer to be divided into tiny pieces for subsequent culture to allow cell outgrowth in a 6‑well plate with DMEM (low glucose), 20% FBS, and 1% penicillin-streptomycin. The medium was replaced every 2 days and biopsy pieces were discarded after 5 days. After 14 days, cells reached a confluence of about 80% and were then passed to T75 cell culture flasks.
(§2) The binding assay was performed as follows: Cells were detached with PBS-EDTA (5 mM) for 10 min at 37°C and centrifuged at 500 × g for 5 min. Afterwards, 5 µg of synthesized peptide (see above) was added to 800 µL (0.5 x 10^6 cells) of the cell suspension and incubated for 30 min at 37°C. To control the specific targeting of the EP9 peptide, scrambled and mutated peptides were used as negative controls. Subsequently, 200 µL of the cell suspension were washed in 2 mL MACS buffer (2 % FBS and 1 mM EDTA in PBS) and centrifuged at 500 × g for 5 min and the supernatant was discarded. One additional washing step was performed by resuspending the cell pellet in 200 µL of MACS buffer and centrifugation at 500 × g for 5 min. After discarding the supernatant, the cell pellet was resuspended in 200 µL of 4′6-diamidino-2-phenylindole dichlorhydrate (DAPI) (Merck, Darmstadt, Germany) (1 µg/mL) to allow discrimination of dead cells. Flow cytometric analysis was performed using a BD FACS Canto II flow cytometer (BD Biosciences, Franklin Lakes, NJ, USA).

[1] = test system: primary human cardiac fibroblasts; assay: as above; type: cell-based; settings: outgrowth culture, patient with terminal heart failure, 30 min, 37°C, 6-FAM MFI, n = 2 replicates
Method: as §1, §2

human monocytes (THP1) = assay: as above; type: cell-based; settings: 30 min, 37°C, 6-FAM MFI, n = 3 replicates
Method: as §1, §2

[2] = test system: rat epicardial stromal cells (EpiSC); settings: cultured EpiSC from infarcted rat hearts; cited from earlier work
Description: Using bacterial phage display screening, our previous work identified five small peptides that bound to cultured EpiSC, isolated from infarcted rat hearts, with high affinity. […] In the present study, we first aimed to assess the potential of EP9 for in vivo imaging of epicardial and myocardial stromal cells (fibroblasts) in the post-MI mouse heart. To this end, we coupled EP9 to a ^19F-containing PFC-NE (EP9-PFC-NE), designed for the in vivo labeling of cardiac cells (Figure 1). At 5 days post-MI (50 min ischemia/reperfusion), 150 µL of EP9-PFC-NE were injected into the tail vein of infarcted mice. PFC-NE coupl ... || page 3: Figure S2. Binding of peptide EP9 in comparison to control peptides to mouse cardiac fibroblasts and human monocytes (THP1). The binding of peptide EP9 in comparison to EP9-derived scrambled and mutated (MUT) peptides (see Table S1), as well as a negative control peptide (Negative) with low affinity to cardiac stromal cells (as previously assessed: peptide EP50), was evaluated by flow cytometry after 30 min of incubation in vitro. 6-FAM fluorescence signal of the peptides at the surface of mouse cardiac fibroblasts isolated from hearts 5 days after MI (n = 3 hearts) and human mono ...

## Ac-KLMLPRPGGGKC-NH2 [EP9, 7-amino acid peptide KLMLPRP with glycine spacer GGGK(FAM)C, from phage display on rat EpiSC]
Mouse EpiSC
  binding to cultured mouse EpiSC: superior binding
[1]
  binding to primary human cardiac fibroblasts: high binding
Human monocytes (THP1)
  binding to human monocytes (THP1): no discernible binding; also recorded: only negligible binding
[2]
  binding affinity to rat EpiSC: high binding affinity; also recorded: highest affinity and specificity
